The values that follow come from patent publication US4259235A, “Tricyclic nitrogenous compounds having string plant growth regulating properties” (BASF Aktiengesellschaft, priority 1977, dated 1981).

Test [1] concerns spring wheat. Briefly: Growth height of spring wheat, soil treatment, Example 10. The class given is in vivo, spring wheat ("Opal" variety). The method, then:
(§1) Spring wheat ("Opal" variety) and spring barley ("Union" variety) were grown under greenhouse conditions in plastic dishes 11.5 cm in diameter, in a peat substrate provided with sufficient nutrients. For the soil (preemergence) treatment, the active ingredients were poured, at two application rates, as aqueous formulations onto the surface of the substrate after sowing.
(§2) The plant height was measured at the end of the experiment. The figures obtained show the shortening effect of the active ingredients under investigation. The prior art compound β-chloroethylphosphonic acid (Ethephon, German Printed Application DAS No. 1,667,968) was used for comparison purposes.

Test [2] deals with spring wheat. Briefly: Growth height of spring wheat, leaf treatment, Example 10. The format is in vivo, spring wheat ("Opal" variety). The method, then:
as §1
Leaf treatment was effected by spraying the plants at a growth height of 10 cm with aqueous formulations of the active ingredients at two application rates.
as §2

In the case of `Clc1ccc(C2N=NC3C4CC(C5N=NC45)C23)cc1` (stereo not drawn) [drawing 392], in the test with spring wheat [1] (3 kg/ha), the Plant height is 17.0 cm and the “Plant height, % of untreated control” value worked out at 53.1%. Further, in the test on spring wheat [1] (12 kg/ha), the Plant height turned out to be 14.0 cm and the “Plant height, % of untreated control” value is reported as 43.8%.

For `Brc1ccc(C2=NOC3C4CC(C5N=NC45)C23)cc1` (stereo not drawn) [drawing 393], in the test with spring wheat [1] (3 kg/ha), the Plant height amounted to 26.5 cm and the “Plant height, % of untreated control” value was 82.8%. For the same compound, in the test on spring wheat [1] (12 kg/ha), the Plant height is 25.5 cm and the “Plant height, % of untreated control” value worked out at 79.7%.

On to `O=[N+]([O-])c1ccc(C2=NOC3C4CC(C5N=NC45)C23)cc1` (stereo not drawn) [drawing 394], for which, in the test on spring wheat [1] (3 kg/ha), the Plant height was found to be 25.5 cm and the “Plant height, % of untreated control” value stood at 79.7%. In the test on spring wheat [1] (12 kg/ha), the Plant height amounted to 22.0 cm and the “Plant height, % of untreated control” value stood at 68.8%.

With `Cc1ccc(C2=NOC3C4CC(C5N=NC45)C23)cc1` (stereo not drawn) [drawing 395], the values for the Plant height in the test on spring wheat [1] (3 kg/ha) and in the test on spring wheat [1] (12 kg/ha) were 23.5 cm and 22.0 cm, respectively. The “Plant height, % of untreated control” value with spring wheat [1] (3 kg/ha) was determined as 73.4%; with spring wheat [1] (12 kg/ha), 68.8%.

Turning to `COc1ccc(C2=NOC3C4CC(C5N=NC45)C23)cc1` (stereo not drawn) [drawing 396], the figures for the Plant height with spring wheat [1] (3 kg/ha) and in the test with spring wheat [1] (12 kg/ha) were 27.0 cm and 24.5 cm, respectively. The “Plant height, % of untreated control” value stood at 84.4% in the test on spring wheat [1] (3 kg/ha) and 76.6% in the test on spring wheat [1] (12 kg/ha).

As for `Clc1ccc(C2=NOC3C4CC(C5N=NC45)C23)cc1` (stereo not drawn) [drawing 397], the Plant height in the test on spring wheat [1] (3 kg/ha) turned out to be 16.0 cm; in the test on spring wheat [1] (12 kg/ha), 15.0 cm. The figures for the “Plant height, % of untreated control” value in the test on spring wheat [1] (3 kg/ha) and in the test on spring wheat [1] (12 kg/ha) were 50.0% and 46.9%, respectively.

With `Clc1ccc(C2N=NC3C4CC(C5N=NC45)C23)cc1` (stereo not drawn) [drawing 398], the results for the Plant height in the test on spring wheat [2] (1.5 kg/ha) and in the test with spring wheat [2] (6.0 kg/ha) were 23.5 cm and 22.0 cm, respectively. The “Plant height, % of untreated control” value in the test on spring wheat [2] (1.5 kg/ha) amounted to 71.6%; with spring wheat [2] (6.0 kg/ha) it was 67.1%.

Consider `Brc1ccc(C2=NOC3C4CC(C5N=NC45)C23)cc1` (stereo not drawn) [drawing 399], for which, in the test on spring wheat [2] (1.5 kg/ha), the Plant height is given as 29.0 cm and the “Plant height, % of untreated control” value was found to be 88.4%. Besides, in the test with spring wheat [2] (6.0 kg/ha), the Plant height is recorded as 27.5 cm and the “Plant height, % of untreated control” value worked out at 83.8%.

Take `O=[N+]([O-])c1ccc(C2=NOC3C4CC(C5N=NC45)C23)cc1` (stereo not drawn) [drawing 400]: in the test with spring wheat [2] (1.5 kg/ha), the Plant height turned out to be 29.0 cm and the “Plant height, % of untreated control” value was 88.4%. For the same compound, in the test with spring wheat [2] (6.0 kg/ha), the Plant height is 27.0 cm and the “Plant height, % of untreated control” value stood at 82.3%.

As for `Cc1ccc(C2=NOC3C4CC(C5N=NC45)C23)cc1` (stereo not drawn) [drawing 401], in the test on spring wheat [2] (1.5 kg/ha), the Plant height stood at 29.5 cm and the “Plant height, % of untreated control” value is on record as 89.9%. For the same compound, in the test with spring wheat [2] (6.0 kg/ha), the Plant height is 27.5 cm and the “Plant height, % of untreated control” value stood at 83.3%.

As to `Clc1ccc(C2=NOC3C4CC(C5N=NC45)C23)cc1` (stereo not drawn) [drawing 402], in the test on spring wheat [2] (1.5 kg/ha), the Plant height came out at 29.0 cm and the “Plant height, % of untreated control” value is 88.4%. Besides, in the test with spring wheat [2] (6.0 kg/ha), the Plant height is 27.0 cm and the “Plant height, % of untreated control” value stood at 82.3%.

With `FC(F)(F)c1cccc(NC2C(I)C3CC2C2N=NC32)c1` (stereo not drawn) [drawing 403], the results for the Plant height in the test on spring wheat [2] (1.5 kg/ha) and in the test with spring wheat [2] (6.0 kg/ha) were 27.5 cm and 25.5 cm, respectively. For the same compound, the “Plant height, % of untreated control” value with spring wheat [2] (1.5 kg/ha) stood at 83.3%; in the test on spring wheat [2] (6.0 kg/ha), 77.7%.
